The record followed here is ChEMBL document CHEMBL1201862, “PubChem BioAssay data set” (2004).

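Dose response: 5 concentrations. Exposure: 48 h. Format: 96-well plates. Endpoint: linear interpolation; highest concentration if not reached. GI50 is the concentration that inhibits growth by half.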 Activity calls are given as the source filed them. Cut-off read from the data, not from the text of the source: active = GI50 up to about 1.1 µM and inactive = higher.

Holding throughout (experiment): NCI tumour cell line growth inhibition, 48 h
For assay [1], the system named is SF-268.
The subject of assay [2] is HL-60.
For assay [3], the system named is NCI-H226.
Assay [4] relates to SNB-19.
Assay [5] has as its system RXF 393.
The test system of assay [6] is MOLT-4.
In assay [7] the test system is EKVX.
In assay [8] the test system is NCI-H460.
Assay [9] concerns SF-539.
Assay [10] has as its system A498.
The subject of assay [11] is NCI-H23.
For assay [12], the system named is SK-MEL-5.
Assay [13] relates to NCI/ADR-RES.
For assay [14], the system named is OVCAR-4.
Assay [15] has as its system OVCAR-8.
The test system of assay [16] is Malme-3M.
For assay [17], the system named is HCT-15.
In assay [18] the test system is COLO 205.
The subject of assay [19] is HOP-62.
In assay [20] the test system is LOX IMVI.

As for `O=C(OCCN=C1c2ccccc2CCc2ccccc21)c1cc([N+](=O)[O-])cc([N+](=O)[O-])c1`, the GI50 was > 31.6 µM (inactive) in [1]; 25.7 µM (inactive) in assay [2]; > 31.6 µM (inactive) in assay [3]; > 31.6 µM (inactive) in assay [4]; > 31.6 µM (inactive) in assay [5]; 4.22 µM (inactive) in assay [6]. In addition, the GI50 in [7] was > 31.6 µM (inactive); in assay [8], > 31.6 µM (inactive); in assay [9] it was > 31.6 µM (inactive); in assay [10], > 10 µM (inactive); in [11], > 31.6 µM (inactive); in [12], 27.2 µM (inactive). The GI50 in [13] is > 31.6 µM (inactive); in assay [14], 78.2 µM (inactive); in [15] it was > 31.6 µM (inactive); in assay [16], > 31.6 µM (inactive); in assay [17], over 31.6 µM; in assay [18], > 31.6 µM (inactive). For the same compound, the GI50 in [19] and in [20] was > 31.6 µM (inactive) in each case.
